The values below come from patent publication US20230270881A1, “ONCOGENIC TRIM37 IS A TARGETABLE EPIGENETIC DRIVER OF METASTASIS AND LINKS CHEMORESISTANCE AND METASTATIC FATE IN TRIPLE-NEGATIVE BREAST CANCER” (University of Virginia Patent Foundation, priority 2020, published 2023).

B1: tripartite motif-containing protein 37 (TRIM37) (enzyme)
chain: MDEQSVESIAEVFRCFICMEKLRDARLCPHCSKLCCFSCIRRWLTEQRAQCPHCRAPLQLRELVNCRWAEEVTQQLDTLQLCSLTKHEENEKDKCENHHEKLSVFCWTCKKCICHQCALWGGMHGGHTFKPLAEIYEQHVTKVNEEVAKLRRRLMELISLVQEVERNVEAVRNAKDERVREIRNAVEMMIARLDTQLKNKLITLMGQKTSLTQETELLESLLQEVEHQLRSCSKSELISKSSEILMMFQQVHRKPMASFVTTPVPPDFTSELVPSYDSATFVLENFSTLRQRADPVYSPPLQVSGLCWRLKVYPDGNGVVRGYYLSVFLELSAGLPETSKYEYRVEMVHQSCNDPTKNIIREFASDFEVGECWGYNRFFRLDLLANEGYLNPQNDTVILRFQVRSPTFFQKSRDQHWYITQLEAAQTSYIQQINNLKERLTIELSRTQKSRDLSPPDNHLSPQNDDALETRAKKSACSDMLLEGGPTTASVREAKEDEEDEEKIQNEDYHHELSDGDLDLDLVYEDEVNQLDGSSSSASSTATSNTEENDIDEETMSGENDVEYNNMELEEGELMEDAAAAGPAGSSHGYVGSSSRISRRTHLCSAATSSLLDIDPLILIHLLDLKDRSSIENLWGLQPRPPASLLQPTASYSRKDKDQRKQQAMWRVPSDLKMLKRLKTQMAEVRCMKTDVKNTLSEIKSSSAASGDMQTSLFSADQAALAACGTENSGRLQDLGMELLAKSSVANCYIRNSTNKKSNSPKPARSSVAGSLSLRRAVDPGENSRSKGDCQTLSEGSPGSSQSGSRHSSPRALIHGSIGDILPKTEDRQCKALDSDAVVVAVFSGLPAVEKRRKMVTLGANAKGGHLEGLQMTDLENNSETGELQPVLPEGASAAPEEGMSSDSDIECDTENEEQEEHTSVGGFHDSFMVMTQPPDEDTHSSFPDGEQIGPEDLSFNTDENSGR
notes: Endogenous TRIM37 in extracts of human TNBC cell lines (MDA MB 468 nuclear extract for co-immunoprecipitation, HCC1806 whole cell extract for sucrose gradient)

The subject of experiment [1] is MDA-MB-468 cells. Kind of experiment: Chemical inhibitor treatment with Dox, qRT-PCR of TRIM37. The settings on record: in combination with Dox. Format: cell-based, human. The protocol:
Quantitative RT-PCR (qRT-PCR). Total RNA was isolated and reverse transcribed using Superscript II Reverse Transcriptase (Invitrogen). Gene expression was normalized to Gapdh. Controls lacking reverse transcriptase were carried out in parallel to rule out the possibility of DNA contamination. Each sample was analyzed at least two independent times and the results from at least three different biological triplicates are presented.
(§1) Chemical inhibitor treatment. MDA-MB-468 cells were treated for 24 hrs with 10 µM Dox and small molecule inhibitors at the following concentrations: 10 µM KU000553 (Cayman Chemical), 50 µM AG490 (Cayman Chemical), and 40 µM HLM006474 (Sigma-Aldrich) for 24 hrs.
On the technique in general: Real-time PCR tracks product formation cycle by cycle.

Experiment [2] deals with TRIM37. Kind of experiment: Immunoblotting of TRIM37 in treated cells. Format: cell-based, human. The settings on record: TNBC cells. As for the experimental part:
Immunoblotting. Cell extracts were prepared by lysing cell pellet in RIPA buffer supplemented with 1 mM sodium ortho-vanadate and 10 mM PMSF. To prepare protein extract from mouse tissue, it was homogenized in lysis buffer (1% SDS, 1 mM sodium ortho-vanadate, 10 mM Tris pH 7.4 and protease inhibitor). Immunoblots were probed using antibodies against TRIM37 (Abcam), PARP (Cell Signaling Technology), p21 (Cell Signaling Technology), γ-ph-H2AX (Cell Signaling Technology), RAD51C (Invitrogen), ph-ATM (Cell Signaling Technology), ph-STAT1 (Cell Signaling Technology), ph-STAT3 (Cell Signaling Technology), ph-STAT5 (Cell Signaling Technology), BIM (Abcam), FOLR1 (R&D) and α-tubulin (Invitrogen).

Experiment [3] deals with TRIM37. Nature of the experiment: Directed-ChIP assays. Format: cell-based, human. The settings on record: MDA MB 468 cells, in combination with Dox. As for the experimental part: Directed-ChIP assays. ChIP assays were performed as described previously (Bhatnagar et al., 2014) using cell extracts prepared 1 day after Cas9 transduction or inhibitor treatment, and antibodies against BMI1 (Abcam), H2Aub (Cell Signaling Technology), TRIM37 (Abcam), STAT1 (Cell Signaling Technology), STAT3 (Cell Signaling Technology), E2F1 (Cell Signaling Technology), and as a negative control, IgG. Each ChIP experiment was carried out at least three independent times and the results from at least three biological experiments, with technical duplicates, are shown.
as §1

For experiment [4], the target named is T1, RAD50 (human, UniProt Q92878 1-1312).
T1 construct: Only co-sedimentation with TRIM37 is reported
T1 sequence (looked up): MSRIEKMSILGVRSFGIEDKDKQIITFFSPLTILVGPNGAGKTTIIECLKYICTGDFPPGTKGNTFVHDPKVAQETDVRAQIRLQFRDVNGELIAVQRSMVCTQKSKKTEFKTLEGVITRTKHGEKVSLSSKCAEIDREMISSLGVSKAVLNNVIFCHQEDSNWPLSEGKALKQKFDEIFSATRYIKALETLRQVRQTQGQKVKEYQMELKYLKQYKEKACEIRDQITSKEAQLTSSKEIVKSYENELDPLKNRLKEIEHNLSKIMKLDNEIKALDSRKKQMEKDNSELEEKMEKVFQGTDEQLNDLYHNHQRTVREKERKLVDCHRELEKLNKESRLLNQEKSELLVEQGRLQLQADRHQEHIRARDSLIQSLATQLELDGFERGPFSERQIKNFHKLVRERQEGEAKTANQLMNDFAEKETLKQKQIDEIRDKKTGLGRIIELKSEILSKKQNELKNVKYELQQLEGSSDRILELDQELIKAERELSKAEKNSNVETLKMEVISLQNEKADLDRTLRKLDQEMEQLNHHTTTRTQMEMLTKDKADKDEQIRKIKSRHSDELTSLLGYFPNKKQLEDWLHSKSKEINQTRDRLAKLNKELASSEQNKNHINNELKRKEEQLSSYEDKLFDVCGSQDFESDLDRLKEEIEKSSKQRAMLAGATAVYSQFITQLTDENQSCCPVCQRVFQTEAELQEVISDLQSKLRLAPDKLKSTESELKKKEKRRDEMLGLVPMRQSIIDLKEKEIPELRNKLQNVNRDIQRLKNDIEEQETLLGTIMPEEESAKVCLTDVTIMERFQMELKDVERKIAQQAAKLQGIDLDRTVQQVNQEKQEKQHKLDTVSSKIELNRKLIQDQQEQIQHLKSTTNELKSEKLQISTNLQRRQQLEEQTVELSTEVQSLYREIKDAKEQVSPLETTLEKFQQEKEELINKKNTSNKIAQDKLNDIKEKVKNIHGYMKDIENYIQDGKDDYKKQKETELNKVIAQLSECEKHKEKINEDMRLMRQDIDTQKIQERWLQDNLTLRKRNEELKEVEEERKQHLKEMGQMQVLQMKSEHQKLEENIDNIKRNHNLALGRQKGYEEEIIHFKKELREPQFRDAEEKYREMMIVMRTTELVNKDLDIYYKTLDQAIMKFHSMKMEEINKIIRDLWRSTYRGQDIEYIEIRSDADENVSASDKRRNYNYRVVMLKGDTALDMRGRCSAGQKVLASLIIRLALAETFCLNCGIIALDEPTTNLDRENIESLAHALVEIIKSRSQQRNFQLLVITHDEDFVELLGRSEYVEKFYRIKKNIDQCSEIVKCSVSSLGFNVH
Kind of experiment: sucrose gradient sedimentation of HCC1806 whole cell extract, immunoblot of fractions. As for the experimental part:
(§2) Sucrose gradient fractionation. Sucrose gradient sedimentation analysis was performed as described previously (Bhatnagar et al., 2014). Briefly, 10-40% gradients were formed by layering 200 µl NEB1 buffer containing 10%, 20%, 30% or 40% sucrose in a 13 x 51 mm centrifuge tube (Beckman) and allowed to equilibrate at room temperature for 2 hrs. Gradients were chilled, loaded with […] HCC1806 extract (adjusted to a volume of 200 µl) or 200 µl molecular weight markers (Sigma MW-GF-1000), and centrifuged in a Beckman SW 55 Ti rotor at 214,000 g for 14 hrs. Twenty-five fractions of 200 µl were collected. For the markers, 20 µl of each fraction was electrophoresed and Coomassie stained.
In general terms: Immunoblotting shows a protein as a band on a membrane.

For experiment [5], the target named is B1. The experiment is described as above. As for the experimental part:
as §2

For `O=c1cc(-c2cccc3c2Sc2ccccc2S3)oc(N2CCOCC2)c1` [KU000553], the “TRIM37 upregulation following Dox-treatment (qRT-PCR)” value in experiment [1] is on record as “blocks TRIM37 upregulation”.

Consider `N.N.[Cl][Pt][Cl]` [cisplatin], for which the “TRIM37 expression post-treatment relative to DMSO” value in experiment [2] was “increased TRIM37 expression”.

On to `CCOc1ccc(C(Nc2ccccn2)c2ccc3ccc(C)nc3c2O)cc1C` (stereo not drawn) [HLM006474], for which the “TRIM37 upregulation following Dox-treatment (qRT-PCR)” value in experiment [1] is “blocks TRIM37 upregulation”. For the same molecule, the “Dox-induced STAT1, STAT3, and E2F1 recruitment to TRIM37 (ChIP)” value in experiment [3] is on record as “substantially decreased”.

As for `N#C/C(=C/c1ccc(O)c(O)c1)C(=O)NCc1ccccc1` [AG490], the “TRIM37 upregulation following Dox-treatment (qRT-PCR)” value in experiment [1] is given as “blocks TRIM37 upregulation”. Moreover, the “Dox-induced STAT1, STAT3, and E2F1 recruitment to TRIM37 (ChIP)” value in experiment [3] is “substantially decreased”.

Consider `COc1cccc2c1C(=O)c1c(O)c3c(c(O)c1C2=O)C[C@@](O)(C(C)=O)C[C@@H]3O[C@H]1C[C@H](N)[C@H](O)[C@H](C)O1` [daunorubicin], for which the “TRIM37 expression post-treatment relative to DMSO” value in experiment [2] is on record as “increased TRIM37 expression”.

B1: the binding result in experiment [4] was “binds”.

B2: MRE11 (other, human, UniProt P49959 2-708, looked up)
chain: STADALDDENTFKILVATDIHLGFMEKDAVRGNDTFVTLDEILRLAQENEVDFILLGGDLFHENKPSRKTLHTCLELLRKYCMGDRPVQFEILSDQSVNFGFSKFPWVNYQDGNLNISIPVFSIHGNHDDPTGADALCALDILSCAGFVNHFGRSMSVEKIDISPVLLQKGSTKIALYGLGSIPDERLYRMFVNKKVTMLRPKEDENSWFNLFVIHQNRSKHGSTNFIPEQFLDDFIDLVIWGHEHECKIAPTKNEQQLFYISQPGSSVVTSLSPGEAVKKHVGLLRIKGRKMNMHKIPLHTVRQFFMEDIVLANHPDIFNPDNPKVTQAIQSFCLEKIEEMLENAERERLGNSHQPEKPLVRLRVDYSGGFEPFSVLRFSQKFVDRVANPKDIIHFFRHREQKEKTGEEINFGKLITKPSEGTTLRVEDLVKQYFQTAEKNVQLSLLTERGMGEAVQEFVDKEEKDAIEELVKYQLEKTQRFLKERHIDALEDKIDEEVRRFRETRQKNTNEEDDEVREAMTRARALRSQSEESASAFSADDLMSIDLAEQMANDSDDSISAATNKGRGRGRGRRGGRGQNSASRGGSQRGRADTGLETSTRSRNSKTAVSASRNMSIIDAFKSTRQQPSRNVTTKNYSEVIEVDESDVEEDIFPTTSKTDQRWSSTSSSKIMSQSQVSKGVDFESSEDDDDDPFMNTSSLRRNRR
notes: Only co-sedimentation with TRIM37 is reported
With B2, the binding result in experiment [5] is recorded as “binds”.
